# Test results published in article PMC5784158, “New 2-Aryl-9-methyl-β-carbolinium salts as Potential Acetylcholinesterase Inhibitor agents: Synthesis, Bioactivity and Structure–Activity Relationship” (Scientific Reports, 2018).
# Like-named read-outs stand apart in the source and are kept apart here.
# Target: AChE (Musca domestica, UniProt Q7YWJ9)
# Assay: biochemical
# Type: biochemical, fly
# Conditions: for Inhibition rate (%): test concentration of the compound 10 μM
# Protocol: AChE (E.C. 3.1.1.7) (BR, 200 u/mg) from fly’s head and BuChE (E.C. 3.1.1.8) (BR, 20 u/mg) from horse serum were purchased from Shanghai Yuanye biological technology Co. Ltd (Shanghai, China).
# The inhibitory activities of the compounds against AChE were evaluated according to Ellman’s coupled enzyme assay[47] with the following modifications. 90 μL potassium phosphate buffer (PBS, 0.1 M, pH 7.4), 10 μL the solution of 2 units/mL AChE in 0.1 M PBS (pH 7.4) and 10 μL the solution of 200 μM test compounds in the mixed solution of methanol-PBS (pH 7.4) (1:9, V/V) were added to each well of a 96-well plate. The methanol-PBS solution was used as a blank control. After incubation at room temperature for 10 min, 60 μL the solution of 10 mM DTNB in PBS was added into each the well. The plate was placed on crushed ices and cooled for 20 min. To each the well was added 30 μL the solution of 7.5 mM ATCh in PBS (pH 7.4). […] Each test was performed in triplicate. Inhibition rates of the enzyme were calculated relative to a control sample. The inhibitory activities against BuChE were measured as described above for AChE, using 0.7 unit/mL BuChE and 4 mM BuTCh instead of AChE and ATCh as the enzyme and substrate, respectively.
# The probit value of the average inhibition rate for each test concentration and the corresponding lg[concentration] were used to establish enzyme inhibition regression equation by the linear least-square fitting method. IC50 values were calculated from the equations.
# [1] = Estimated values based on the results in Table 1 (inhibition rate at 10 μM), read-out: IC50 AChE, estimated values
# AChE, sequence (Q7YWJ9 81-659): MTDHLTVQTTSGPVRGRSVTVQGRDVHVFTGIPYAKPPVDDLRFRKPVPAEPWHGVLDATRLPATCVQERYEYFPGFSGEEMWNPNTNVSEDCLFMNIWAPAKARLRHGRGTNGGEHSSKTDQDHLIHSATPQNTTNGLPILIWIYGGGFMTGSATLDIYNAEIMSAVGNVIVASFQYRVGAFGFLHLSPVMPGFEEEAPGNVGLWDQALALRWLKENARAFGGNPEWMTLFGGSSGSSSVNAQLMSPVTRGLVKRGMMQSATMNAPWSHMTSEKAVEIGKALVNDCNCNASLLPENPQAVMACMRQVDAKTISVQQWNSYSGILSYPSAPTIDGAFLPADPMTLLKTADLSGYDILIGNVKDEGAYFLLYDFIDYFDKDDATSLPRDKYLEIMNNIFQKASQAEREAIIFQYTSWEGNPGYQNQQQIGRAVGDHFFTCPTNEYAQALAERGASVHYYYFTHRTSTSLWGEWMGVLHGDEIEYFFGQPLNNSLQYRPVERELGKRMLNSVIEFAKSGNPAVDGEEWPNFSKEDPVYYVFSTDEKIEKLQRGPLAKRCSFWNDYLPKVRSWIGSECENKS
SMILES,IC50 [1],Inhibition rate (%),"IC50 (10 μM, read-out: IC50 AChE, NA)",Inhibition rate (%) (10 µM),IC50 (read-out: IC50 ± S.D AChE)
Cn1c2c(c3ccccc31)CC[N+](c1ccccc1F)=C2.[Br-] [Compound A2],> 10 µM,15.1 ± 2.8 mnop %,–,–,–
Cn1c2c(c3ccccc31)CC[N+](c1cccc(F)c1)=C2.[Br-] [Compound A3],> 10 µM,22.4 ± 1.1 l %,–,–,–
Cn1c2c(c3ccccc31)CC[N+](c1ccccc1Cl)=C2.[Br-] [Compound A5],> 10 µM,2.4 ± 8.0 stu %,–,–,–
Cn1c2c(c3ccccc31)CC[N+](c1cccc(Cl)c1)=C2.[Br-] [Compound A6],> 10 µM,19.3 ± 4.0 lm %,–,–,–
Cn1c2c(c3ccccc31)CC[N+](c1ccccc1Br)=C2.[Br-] [Compound A8],> 10 µM,5.9 ± 1.0 qrs %,–,–,–
Cn1c2c(c3ccccc31)CC[N+](c1cccc(Br)c1)=C2.[Br-] [Compound A9],> 10 µM,16.2 ± 3.3 mno %,–,–,–
Cn1c2c(c3ccccc31)CC[N+](c1ccccc1I)=C2.[Br-] [Compound A11],–,−10.6 ± 3.0 w %,> 10 µM,–,–
Cn1c2c(c3ccccc31)CC[N+](c1cccc(I)c1)=C2.[Br-] [Compound A12],> 10 µM,10.1 ± 2.8 pqr %,–,–,–
Cn1c2c(c3ccccc31)CC[N+](c1ccccc1O)=C2.[Br-] [Compound A14],> 10 µM,23.2 ± 2.5 kl %,–,–,–
COc1ccccc1[N+]1=Cc2c(c3ccccc3n2C)CC1.[Br-] [Compound A17],> 10 µM,5.8 ± 2.4 qrs %,–,–,–
COc1cccc([N+]2=Cc3c(c4ccccc4n3C)CC2)c1.[Br-] [Compound A18],> 10 µM,4.7 ± 1.5 rst %,–,–,–
Cc1ccccc1[N+]1=Cc2c(c3ccccc3n2C)CC1.[Br-] [Compound A20],> 10 µM,44.3 ± 1.7 j %,–,–,–
Cc1cccc([N+]2=Cc3c(c4ccccc4n3C)CC2)c1.[Br-] [Compound A21],> 10 µM,28.6 ± 1.7 k %,–,–,–
Cn1c2c(c3ccccc31)CC[N+](c1ccccc1C#N)=C2.[Br-] [Compound A23],> 10 µM,10.1 ± 1.6 pqr %,–,–,–
Cn1c2c(c3ccccc31)CC[N+](c1cccc(C#N)c1)=C2.[Br-] [Compound A24],> 10 µM,18.9 ± 0.3 lmn %,–,–,–
Cn1c2c(c3ccccc31)CC[N+](c1ccc(C#N)cc1)=C2.[Br-] [Compound A25],> 10 µM,15.6 ± 1.8 mnop %,–,–,–
Cn1c2c(c3ccccc31)CC[N+](c1cccc(C(F)(F)F)c1)=C2.[Br-] [Compound A26],> 10 µM,12.8 ± 2.1 kln %,–,–,–
Cn1c2c(c3ccccc31)CC[N+](c1ccc(C(F)(F)F)cc1)=C2.[Br-] [Compound A27],> 10 µM,28.4 ± 1.0 k %,–,–,–
Cn1c2c(c3ccccc31)CC[N+](c1cccc([N+](=O)[O-])c1)=C2.[Br-] [Compound A28],> 10 µM,14.5 ± 3.9 mnop %,–,–,–
Cn1c2c(c3ccccc31)CC[N+](c1c(F)cccc1F)=C2.[Br-] [Compound A29],–,−3.3 ± 2.0 uv %,> 10 µM,–,–
Cn1c2c(c3ccccc31)CC[N+](c1ccc(Cl)cc1Cl)=C2.[Br-] [Compound A30],–,−0.5 ± 2.4 tu %,> 10 µM,–,–
Cn1c2c(c3ccccc31)CC[N+](c1cc(Cl)cc(Cl)c1)=C2.[Br-] [Compound A31],–,0.7 ± 0.5 stu %,> 10 µM,–,–
Cn1c2c(c3ccccc31)CC[N+](c1ccc(Br)cc1F)=C2.[Br-] [Compound A32],> 10 µM,11.1 ± 2.8 opq %,–,–,–
Cn1c2c(c3ccccc31)CC[N+](c1ccc(Br)cc1Br)=C2.[Br-] [Compound A33],–,no activity,> 10 µM,−7.0 ± 8.3 vw %,–

SMILES,IC50 [1],Inhibition rate (%),"IC50 (10 μM, read-out: IC50 AChE, NA)",Inhibition rate (%) (10 µM),IC50 (read-out: IC50 ± S.D AChE)
CC(C)Cn1c2c(c3ccccc31)CC[N+](c1ccccc1)=C2.[Br-] [Compound A43],> 10 µM,46.5 ± 1.9 ghi %,–,–,–
C1=[N+](c2ccccc2)CCc2c1n(Cc1ccccc1)c1ccccc21.[Br-] [Compound A44],> 10 µM,31.2 ± 4.4 ef %,–,–,–
CCOC(=O)Cn1c2c(c3ccccc31)CC[N+](c1ccccc1)=C2.[Br-] [Compound A45],> 10 µM,38.8 ± 4.6 j %,–,–,–
Brc1ccc([N+]2=Cc3[nH]c4ccccc4c3CC2)cc1.[Br-] [Compound A47],> 10 µM,16.0 ± 1.7 mnop %,–,–,–
"Cn1c2ccccc2c2cc[n+](-c3ccccc3)cc21.[Br-] [Compound B1, 9-Methyl-2-phenyl-β-carboline bromide]",–,71.5 ± 0.3 l %,–,–,3.18 ± 0.12 µM
"Cn1c2ccccc2c2cc[n+](-c3ccccc3Cl)cc21.[Br-] [Compound B5, 9-Methyl-2-(2-chlorophenyl)-β-carboline bromide]",> 10 µM,38.5 ± 1.9 st %,–,–,–
"Cn1c2ccccc2c2cc[n+](-c3ccccc3Br)cc21.[Br-] [Compound B8, 9-Methyl-2-(2-bromophenyl)-β-carboline bromide]",> 10 µM,32.1 ± 0.9 u %,–,–,–
"Cn1c2ccccc2c2cc[n+](-c3cccc(Br)c3)cc21.[Br-] [Compound B9, 9-Methyl-2-(3-bromophenyl)-β-carboline bromide]",~10 µM,48.8 ± 6.6 q %,–,–,–
"Cn1c2ccccc2c2cc[n+](-c3ccccc3I)cc21.[Br-] [Compound B11, 9-Methyl-2-(2-iodohenyl)-β-carboline bromide]",> 10 µM,43.3 ± 1.8 r %,–,–,–
"Cn1c2ccccc2c2cc[n+](-c3ccccc3O)cc21.[Br-] [Compound B14, 9-Methyl-2-(2-hydroxyhenyl)-β-carboline bromide]",> 10 µM,23.9 ± 4.3 v %,–,–,–
"COc1ccccc1-[n+]1ccc2c3ccccc3n(C)c2c1.[Br-] [Compound B17, 9-Methyl-2-(2-methoxylphenyl)-β-carboline bromide]",> 10 µM,41.0 ± 2.9 rs %,–,–,–
"Cn1c2ccccc2c2cc[n+](-c3ccc(C#N)cc3)cc21.[Br-] [Compound B25, 9-Methyl-2-(4-cyanophenyl)-β-carboline bromide]",> 10 µM,36.8 ± 0.8 t %,–,–,–
"Cn1c2ccccc2c2cc[n+](-c3cccc(C(F)(F)F)c3)cc21.[Br-] [Compound B26, 9-Methyl-2-(3-trifluoromethylphenyl)-β-carboline bromide]",> 10 µM,41.0 ± 1.9 rs %,–,–,–
"Cn1c2ccccc2c2cc[n+](-c3cccc([N+](=O)[O-])c3)cc21.[Br-] [Compound B28, 9-Methyl-2-(3-nitrophenyl)-β-carboline bromide]",> 10 µM,34.9 ± 1.8 tu %,–,–,–
"Cn1c2ccccc2c2cc[n+](-c3c(F)cccc3F)cc21.[Br-] [Compound B29, 9-Methyl-2-(2,6-difluorophenyl)-β-carboline bromide]",~10 µM,48.5 ± 3.1 pq %,–,–,–
"Cn1c2ccccc2c2cc[n+](-c3cc(Cl)cc(Cl)c3)cc21.[Br-] [Compound B31, 9-Methyl-2-(3,5-dichlorophenyl)-β-carboline bromide]",> 10 µM,18.9 ± 2.5 v %,–,–,–
"COc1ccc2c(c1)c1cc[n+](-c3ccccc3)cc1n2C.[Br-] [Compound B34, 6-Methoxy-9-methyl-2-phenyl-β-carboline bromide]",–,85.7 ± 2.5 ghi %,–,–,0.94 ± 0.23 µM
"Cc1ccc2c(c1)c1cc[n+](-c3ccccc3)cc1n2C.[Br-] [Compound B35, 6,9-Dimethyl-2-phenyl-β-carboline bromide]",–,88.6 ± 2.5 efg %,–,–,0.42 ± 0.15 µM
"Cn1c2cc(F)ccc2c2cc[n+](-c3ccccc3)cc21.[Br-] [Compound B36, 7-Fluoro-9-methyl-2-phenyl-β-carboline bromide]",–,76.2 ± 1.1 k %,–,–,2.61 ± 0.51 µM
"Cn1c2cc(Cl)ccc2c2cc[n+](-c3ccccc3)cc21.[Br-] [Compound B37, 7-Chloro-9-methyl-2-phenyl-β-carboline bromide]",–,89.9 ± 0.7 def %,–,–,0.57 ± 0.08 µM
"CCn1c2ccccc2c2cc[n+](-c3ccccc3)cc21.[Br-] [Compound B38, 9-Ethyl-2-phenyl-β-carboline bromide]",–,87.8 ± 1.1 efgh %,–,–,0.76 ± 0.21 µM
"CCCn1c2ccccc2c2cc[n+](-c3ccccc3)cc21.[Br-] [Compound B39, 9-Propyl-2-phenyl-β-carboline bromide]",–,78.8 ± 0.9 jk %,–,–,3.08 ± 0.66 µM
"CC(C)n1c2ccccc2c2cc[n+](-c3ccccc3)cc21.[Br-] [Compound B40, 9-Iso-propyl-2-phenyl-β-carboline bromide]",–,86.9 ± 0.8 fgh %,–,–,0.54 ± 0.16 µM
